Tests used:
Assay type in all cases: in vivo
Diabrotica balteata = Diabrotica balteata spray test; conditions: 168 h, wheat seeds, after 7 days, read-out: activity (efficacy, seedlings grown); for pest or weed control at 160 µg/disc, 500 g/ha: 500 g/ha (=160 μg/well)
Outline: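 Efficacy was read 7 days after infesting each unit with 10–20 banded cucumber beetle larvae, as % of seedlings growing like untreated, uninfested controls. Before infestation, wheat seeds germinated 1 day on agar (5 per well) were sprayed with the active ingredient. The active was formulated in acetone/DMF and diluted in water containing emulsifier.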

Spodoptera frugiperda = Spodoptera frugiperda spray test; conditions: in Zea mays, 168 h, read-out: activity (mortality)
Outline: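 Larvae of fall armyworm placed on dried maize leaf sections previously sprayed with emulsified compound (acetone/DMF solvent, water with 1000 ppm emulsifier). Percent of caterpillars killed recorded on day 7, 0–100% scale.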

[1] = system: Rhipicephalus microplus (strain Parkhurst, resistant against synthetic pyrethroids); experiment: Rhipicephalus microplus in-vitro contact test, larval cattle tick (BOOPMI Contact); conditions: 5 μg/cm^2 (=500 g/ha), after 48 hours, read-out: activity (efficacy, larvae dead or moribund)
Outline: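 Efficacy, expressed as percentage of larvae dead or moribund, is judged by negative geotactic behaviour 48 h after larvae (20-50 per tube) enter tubes whose inner walls carry a dried acetone film of compound, 5 μg/cm² at 900 ppm. Incubation: horizontal, 27 °C, 85% relative humidity.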

Ctenocephalides felis [2] = experiment: Ctenocephalides felis oral test (CTECFE); conditions: 48 h, 100 ppm in cattle blood, after 2 days
Experimental: Ctenocephalides felis—Oral Test (CTECFE)
Solvent: dimethyl sulfoxide
To produce a suitable preparation of active compound, 10 mg of active compound are dissolved in 0.5 ml solvent, and the concentrate is diluted with cattle blood to the desired concentration.
Approximately 20 adult unfed cat fleas (Ctenocephalides felis) are placed in flea chambers. The blood chamber, sealed with parafilm on the bottom, are filled with cattle blood supplied with compound solution and placed on the gauze covered top of the flea chamber, so that the fleas are able to suck the blood. The blood chamber is heated to 37° C. whereas the flea chamber is kept at room temperature.
After 2 days mortality in % is determined. 100% means all the fleas have been killed; 0% means none of the fleas have been killed.

Boophilus microplus = Boophilus microplus injection test (BOOPMI Injection); conditions: Rhipicephalus microplus, 168 h, injection into adult engorged female ticks, egg deposition after 7 days, read-out: activity (efficacy, infertile eggs); for pest or weed control at 0.004 mg: 4 μg/animal; for pest or weed control at 0.02 mg: 20 μg/animal
Outline: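 Adult engorged female ticks (5 per group) injected into the abdomen with 1 μL compound in DMSO, then held in a climate chamber. Fertile egg deposition scored after 7 days, with unclear eggs kept until hatching (~42 days). Efficacy 100% = all eggs infertile, 0% = all fertile.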

Rhipicephalus sanguineus = Rhipicephalus sanguineus in-vitro contact test, adult brown dog ticks (RHIPSA Contact); conditions: 5 μg/cm^2 (=500 g/ha), after 48 hours, read-out: activity (efficacy, ticks dead or moribund)
Experimental: Rhipicephalus sanguineus—in-Vitro Contact Tests with Adult Brown Dog Ticks (RHIPSA Contact)
(§1) 9 mg compound is solved in 1 ml acetone and diluted with acetone to the desired concentration. 250 μl_, of the test solution is filled in 25 ml glass test tubes and homogeneously distributed on the inner walls by rotation and tilting on a shaking device (2 h at 30 rpm). With a compound concentration of 900 ppm, an inner surface of 44.7 cm^2 and a homogeneous distribution, a dose of 5 μg/cm^2 is achieved.
(§2) After the solvent has evaporated, each test tube is filled with 5-10 adult brown dog ticks (Rhipicephalus sanguineus), closed with a perforated lid and incubated in a lying position at room temperature and relative humidity. After 48 hours efficacy is determined. The ticks are patted on the ground of the tubes and are incubated on a heating plate at 45-50° C. for at most 5 minutes Immotile or uncoordinated moving ticks, which are not able to escape the heat by climbing upwards, are marked as dead or moribund.
An efficacy of 100% means all ticks are dead or moribund; 0% means no ticks are dead or moribund.

Ctenocephalides felis [3] = experiment: Ctenocephalides felis in-vitro contact test, adult cat flea; conditions: 5 μg/cm^2 (=500 g/ha), after 48 hours, read-out: activity (efficacy, fleas dead or moribund)
Experimental: Ctenocephalides felis—in-Vitro Contact Tests Adult Cat Flea
as §1, with “[…]” for “250 μl_,”
as §2, with “cat fleas (Ctenocephalides felis),” for “brown dog ticks (Rhipicephalus sanguineus),”, “fleas” for “ticks”, “fleas,” for “ticks,”
An efficacy of 100% means all fleas are dead or moribund; 0% means no fleas are dead or moribund.

Row | SMILES | pest or weed control at 100 g/ha (Diabrotica balteata) [%] | pest or weed control at 160 µg/disc, 500 g/ha (Diabrotica balteata) [%] | mortality at 100 g/ha (Spodoptera frugiperda) [%] | mortality at 500 g/ha (Spodoptera frugiperda) [%] | pest or weed control at 5 µg/cm2 [1] [%] | mortality at 100 ppm (Ctenocephalides felis [2]) [%] | pest or weed control at 0.004 mg (Boophilus microplus) [%] | pest or weed control at 0.02 mg (Boophilus microplus) [%] | pest or weed control at 5 µg/cm2, 5 µg/cm2 (Rhipicephalus sanguineus) [%] | pest or weed control at 5 µg/cm2, 5 µg/cm2 (Ctenocephalides felis [3]) [%]
1 | C[C@H](Nc1nc2cc(C(F)(F)F)cc(Br)c2o1)c1ncnn1-c1ncccn1 [Example I-034] | 100 | 80 | 100 | 100 | 90 | 100 | 100 | 100 | 100 | –
2 | C[C@H](Nc1nc2cc(C(F)(F)F)cc(Cl)c2o1)c1ncnn1-c1cnccn1 [Example I-039, 7-chloro-N-{(1S)-1-[1-(pyrazin-2-yl)-1H-1,2,4-triazol-5-yl]ethyl}-5-(trifluoromethyl)-1,3-benzoxazol-2-amine] | 100 | 100 | – | 100 | 90 | 100 | 100 | 100 | 100 | –
3 | C[C@H](Nc1nc2cc(C(F)(F)F)cc(Cl)c2o1)c1ncnn1-c1ccncn1 [Example I-047, 7-Chlor-N-{(1S)-1-[1-(pyrimidin-4-yl)-1H-1,2,4-triazol-5-yl]ethyl}-5-(trifluormethyl)-1,3-benzoxazol-2-amin] | 100 | 100 | 100 | 100 | 100 | – | 100 | 100 | 100 | –
4 | C[C@H](Nc1nc2cc(C(F)(F)F)cc(Br)c2o1)c1ncnn1-c1ccc(C#N)cn1 [Example I-055, 6-[5-[(1S)-1-{[7-Brom-5-(trifluormethyl)-1,3-benzoxazol-2-yl]amino}ethyl]-1H-1,2,4-triazol-1-yl}nicotinonitril] | 100 | 100 | 100 | 100 | 100 | – | 80 | 100 | 100 | –
5 | C[C@H](Nc1nc2cc(S(F)(F)(F)(F)F)cc(Cl)c2o1)c1ncnn1-c1ncc(Br)cn1 [Example I-083, N-{(1S)-1-[1-(5-Brompyrimidin-2-yl)-1H-1,2,4-triazol-5-yl]ethyl}-7-chlor-5-(pentafluor-lambda^6-sulfanyl)-1,3-benzoxazol-2-amin] | 80 | – | 100 | – | 100 | – | – | – | 100 | 80
6 | CC(Nc1nc2cc(C#N)cc(Cl)c2o1)c1ncnn1-c1ncccn1 (centres unmarked) [Example I-084, 7-Chlor-2-({1-[1-(pyrimidin-2-yl)-1H-1,2,4-triazol-5-yl]ethyl}amino)-1,3-benzoxazol-5-carbonitril] | – | 100 | – | – | 80 | – | 100 | 100 | 80 | 100
7 | C[C@H](Nc1nc2cc(Cl)cc(C(F)(F)F)c2o1)c1ncnn1-c1ncccn1 [Example I-090, 5-Chlor-N-{(1S)-1-[1-(pyrimidin-2-yl)-1H-1,2,4-triazol-5-yl]ethyl}-7-(trifluormethyl)-1,3-benzoxazol-2-amin] | – | 100 | – | 100 | 100 | – | 80 | 100 | 100 | –
8 | C[C@H](Nc1nc2cc(Cl)c(C(F)(F)F)cn2n1)c1ncnn1-c1ncccn1 [Example I-097, 7-chloro-N-{(1S)-1-[1-(pyrimdin-2-yl)-1H-1,2,4-triazol-5-yl]ethyl}-6-(trifluoromethyl)[1,2,4]triazolo[1,5-a]pyridin-2-amine] | – | – | – | – | 100 | – | – | – | 80 | 100

Reference: patent US12384769B2, “Heteroaryl-substituted aminoalkyl azole compounds as pesticides” (Elanco Animal Health GmbH, priority 2019, dated 2025)
